Data published in ChEMBL document CHEMBL4622872, “Discovery of DS-1971a, a Potent, Selective NaV1.7 Inhibitor” (J Med Chem, 2020).
Blank lines part the entries; values can stand above or below the molecule they belong to.

Legend:
[1] = Distribution coefficient, log D of the compound in 1-octanol and PBS buffer at pH 7.4 measured after 30 mins by LC-MS analysis; format: physicochemical; conditions: 1-octanol/PBS buffer
[2] = Aqueous thermodynamic solubility of the compound at pH 6.8 measured after 4 hrs by UV-HPLC analysis; format: physicochemical; conditions: buffer
[3] = Stability of the compound in mouse liver microsomes assessed as parent compound remaining measured after 0.5 hrs; format: ADME, Microsome; conditions: microsomes, 0.5 h
[4] = Stability of the compound in dog liver microsomes assessed as parent compound remaining measured after 0.5 hrs; format: ADME, Canis lupus familiaris, Microsome; conditions: read-out: Stability
[5] = Tmax in ddy mouse at 3 mg/kg, iv or po by LC-MS/MS analysis; format: ADME, organism-based; conditions: in vivo
[6] = Cmax in Sprague-Dawley rat at 1 mg/kg, iv or po by LC-MS/MS analysis; format: ADME, organism-based; conditions: in vivo
[7] = Oral bioavailability in ddy mouse at 3 mg/kg by LC-MS/MS analysis; format: ADME, organism-based; conditions: in vivo
[8] = AUC (infinity) in Sprague-Dawley rat at 1 mg/kg, iv or po by LC-MS/MS analysis; format: ADME, organism-based; conditions: in vivo
[9] = Oral bioavailability in ddy mouse at 1 mg/kg by LC-MS/MS analysis; format: ADME, organism-based; conditions: in vivo
[10] = Half life in cynomolgus monkey at 1 mg/kg, iv or po by LC-MS/MS analysis; format: ADME, organism-based, Macaca fascicularis; conditions: in vivo
[11] = Chronic toxicity in female Crl:CD1(ICR) mouse assessed as NOAEL administered for 6 months; conditions: in vivo
[12] = Toxicity in cynomolgus monkey assessed as effect on cardiovascular system by measuring NOEL administered as single dose measured after 1 to 24 hrs by telemetry; set-up: species or system Macaca fascicularis; conditions: in vivo
[13] = Toxicity in Crl:CD1(ICR) mouse assessed as effect on motor coordination by measuring NOEL administered as single dose measured after 0.5 to 2 hrs by rotarod test; conditions: in vivo
[14] = Stability of the compound in rat liver microsomes assessed as parent compound remaining measured after 0.5 hrs; format: ADME, Microsome; conditions: read-out: Stability
[15] = Chronic toxicity in male cynomolgus monkey assessed as NOAEL administered for 9 months; set-up: species or system Macaca fascicularis; conditions: in vivo
[16] = Half life in Beagle dog at 1 mg/kg, iv or po by LC-MS/MS analysis; format: ADME, organism-based, Canis lupus familiaris; conditions: in vivo
[17] = Oral bioavailability in cynomolgus monkey at 1 mg/kg by LC-MS/MS analysis; format: ADME, organism-based, Macaca fascicularis; conditions: in vivo
[18] = Chronic toxicity in male Crl:CD1(ICR) mouse assessed as NOAEL administered for 6 months; conditions: in vivo
[19] = Cmax in female Crl:CD1(ICR) mouse at 1000 mg/kg administered for 6 months measured 24 hrs post last dose with 1 month recovery; format: ADME, organism-based; set-up: dose 1000 mg/kg; conditions: in vivo
[20] = Cmax in ddy mouse at 3 mg/kg, iv or po by LC-MS/MS analysis; format: ADME, organism-based; conditions: in vivo
[21] = Stability of the compound in human liver microsomes assessed as parent compound remaining measured after 0.5 hrs; format: ADME, Microsome; conditions: read-out: Stability
[22] = Volume of distribution at steady state in ddy mouse at 3 mg/kg, iv by LC-MS/MS analysis; format: ADME, organism-based; conditions: in vivo, read-out: Vdss
[23] = AUC (0 to 24 hrs) in male Crl:CD1(ICR) mouse at 1000 mg/kg administered for 6 months measured 24 hrs post last dose; format: ADME, organism-based; set-up: dose 1000 mg/kg, time < 24 hr; conditions: in vivo
[24] = Cmax in Beagle dog at 1 mg/kg, iv or po by LC-MS/MS analysis; format: ADME, organism-based, Canis lupus familiaris; conditions: in vivo
[25] = Volume of distribution at steady state in ddy mouse at 1 mg/kg, iv by LC-MS/MS analysis; format: ADME, organism-based; conditions: in vivo, read-out: Vdss
[26] = Clearance in cynomolgus monkey at 1 mg/kg, iv by LC-MS/MS analysis; format: ADME, organism-based, Macaca fascicularis; conditions: in vivo
[27] = Toxicity in Crl:CD1(ICR) mouse assessed as effect on central nervous system by measuring NOEL administered as single dose measured up to 24 hrs by Irwin's test; conditions: in vivo
[28] = Chronic toxicity in female cynomolgus monkey assessed as NOAEL administered for 9 months; set-up: species or system Macaca fascicularis; conditions: in vivo
[29] = AUC (infinity) in cynomolgus monkey at 1 mg/kg, iv or po by LC-MS/MS analysis; format: ADME, organism-based, Macaca fascicularis; conditions: in vivo
[30] = Cmax in female cynomolgus monkey at 1000 mg/kg administered for 9 months measured 24 hrs post last dose with 1 month recovery; format: ADME, organism-based, Macaca fascicularis; set-up: dose 1000 mg/kg; conditions: in vivo
[31] = Tmax in ddy mouse at 1 mg/kg, iv or po by LC-MS/MS analysis; format: ADME, organism-based; conditions: in vivo
[32] = Volume of distribution at steady state in Beagle dog at 1 mg/kg, iv by LC-MS/MS analysis; format: ADME, organism-based, Canis lupus familiaris; conditions: in vivo, read-out: Vdss
[33] = Oral bioavailability in Sprague-Dawley rat at 1 mg/kg by LC-MS/MS analysis; format: ADME, organism-based; conditions: in vivo
[34] = Cmax in cynomolgus monkey at 1 mg/kg, iv or po by LC-MS/MS analysis; format: ADME, organism-based, Macaca fascicularis; conditions: in vivo
[35] = AUC (infinity) in ddy mouse at 1 mg/kg, iv or po by LC-MS/MS analysis; format: ADME, organism-based; conditions: in vivo
[36] = Toxicity in Crl:CD1(ICR) mouse assessed as effect on spontaneous locomotor activity by measuring NOEL administered as single dose measured at 10 mins interval starting from 2 to 3 hrs; conditions: in vivo
[37] = AUC (0 to 24 hrs) in female Crl:CD1(ICR) mouse at 1000 mg/kg administered for 6 months measured 24 hrs post last dose with 1 month recovery; format: ADME, organism-based; set-up: dose 1000 mg/kg, time < 24 hr; conditions: in vivo
[38] = Oral bioavailability in Beagle dog at 1 mg/kg by LC-MS/MS analysis; format: ADME, organism-based, Canis lupus familiaris; conditions: in vivo
[39] = Tmax in male Crl:CD1(ICR) mouse at 1000 mg/kg administered for 6 months measured 24 hrs post last dose; format: ADME, organism-based; conditions: in vivo
[40] = Cmax in ddy mouse at 1 mg/kg, iv or po by LC-MS/MS analysis; format: ADME, organism-based; conditions: in vivo
[41] = Toxicity in Crl:CD1(ICR) mouse assessed as effect on respiratory system by measuring NOEL administered as single dose measured after 0.5 to 24 hrs by WBP method; conditions: in vivo
[42] = AUC (0 to 24 hrs) in male cynomolgus monkey at 1000 mg/kg administered for 9 months measured 24 hrs post last dose with 1 month recovery; format: ADME, organism-based, Macaca fascicularis; set-up: time < 24 hr, dose 1000 mg/kg; conditions: in vivo
[43] = Half life in Sprague-Dawley rat at 1 mg/kg, iv or po by LC-MS/MS analysis; format: ADME, organism-based; conditions: in vivo
[44] = Clearance in ddy mouse at 1 mg/kg, iv by LC-MS/MS analysis; format: ADME, organism-based; conditions: in vivo
[45] = Half life in ddy mouse at 1 mg/kg, iv or po by LC-MS/MS analysis; format: ADME, organism-based; conditions: in vivo
[46] = AUC (infinity) in Beagle dog at 1 mg/kg, iv or po by LC-MS/MS analysis; format: ADME, organism-based, Canis lupus familiaris; conditions: in vivo
[47] = Tmax in female cynomolgus monkey at 1000 mg/kg administered for 9 months measured 24 hrs post last dose with 1 month recovery; format: ADME, organism-based, Macaca fascicularis; conditions: in vivo
[48] = Tmax in Sprague-Dawley rat at 1 mg/kg, iv or po by LC-MS/MS analysis; format: ADME, organism-based; conditions: in vivo
[49] = Tmax in Beagle dog at 1 mg/kg, iv or po by LC-MS/MS analysis; format: ADME, organism-based, Canis lupus familiaris; conditions: in vivo
[50] = Tmax in male cynomolgus monkey at 1000 mg/kg administered for 9 months measured 24 hrs post last dose with 1 month recovery; format: ADME, organism-based, Macaca fascicularis; conditions: in vivo
[51] = Volume of distribution at steady state in Sprague-Dawley rat at 1 mg/kg, iv by LC-MS/MS analysis; format: ADME, organism-based; conditions: in vivo, read-out: Vdss
[52] = Volume of distribution at steady state in cynomolgus monkey at 1 mg/kg, iv by LC-MS/MS analysis; format: ADME, organism-based, Macaca fascicularis; conditions: in vivo, read-out: Vdss
[53] = Half life in ddy mouse at 3 mg/kg, iv or po by LC-MS/MS analysis; format: ADME, organism-based; conditions: in vivo
[54] = Cmax in male Crl:CD1(ICR) mouse at 1000 mg/kg administered for 6 months measured 24 hrs post last dose; format: ADME, organism-based; set-up: dose 1000 mg/kg; conditions: in vivo
[55] = AUC (0 to 24 hrs) in female cynomolgus monkey at 1000 mg/kg administered for 9 months measured 24 hrs post last dose with 1 month recovery; format: ADME, organism-based, Macaca fascicularis; set-up: time < 24 hr, dose 1000 mg/kg; conditions: in vivo
[56] = AUC (infinity) in ddy mouse at 3 mg/kg, iv or po by LC-MS/MS analysis; format: ADME, organism-based; conditions: in vivo
[57] = Stability of the compound in monkey liver microsomes assessed as parent compound remaining measured after 0.5 hrs; format: ADME, Macaca mulatta, Microsome; conditions: rhesus monkey, read-out: Stability
[58] = Cmax in male cynomolgus monkey at 1000 mg/kg administered for 9 months measured 24 hrs post last dose with 1 month recovery; format: ADME, organism-based, Macaca fascicularis; set-up: dose 1000 mg/kg; conditions: in vivo
[59] = Tmax in female Crl:CD1(ICR) mouse at 1000 mg/kg administered for 6 months measured 24 hrs post last dose with 1 month recovery; format: ADME, organism-based; conditions: in vivo
[60] = Clearance in Beagle dog at 1 mg/kg, iv by LC-MS/MS analysis; format: ADME, organism-based, Canis lupus familiaris; conditions: in vivo
[61] = Clearance in ddy mouse at 3 mg/kg, iv by LC-MS/MS analysis; format: ADME, organism-based; conditions: in vivo
[62] = Clearance in Sprague-Dawley rat at 1 mg/kg, iv by LC-MS/MS analysis; format: ADME, organism-based; conditions: in vivo
[63] = Tmax in cynomolgus monkey at 1 mg/kg, iv or po by LC-MS/MS analysis; format: ADME, organism-based, Macaca fascicularis; conditions: in vivo

logD at 0.5 h [1]: 0.8
solubility thermodynamic at 4 h ([2]; pH 6.8, read-out: Therm_solubility): > 2000 µM
Stability [3]: 70%
SMILES: Cn1nccc1[C@H]1CCCC[C@@H]1Oc1cc(F)c(S(=O)(=O)Nc2ccncn2)cc1Cl (racemic) [DS-1971]

remaining at 0.5 h [4]: 95%
Tmax [5]: 0.25 h
Cmax [6]: 103 nM
bioavailability [7]: 11%
AUC(0-inf) [8]: 0.103 µM·h
bioavailability [9]: 15%
half-life [10]: 3.69 h
remaining at 0.5 h [14]: 94%
half-life [16]: 4 h
bioavailability [17]: 35%
Cmax [19]: 105000 nM
Cmax [20]: 464 nM
remaining at 0.5 h [21]: 66%
Vd [22]: 0.565 L/kg
AUC(0-t) at 24 h [23]: 65.9 µM·h
Cmax [24]: 1710 nM
Vd [25]: 1.37 L/kg
clearance [26]: 6.55 mL/min/kg
AUC(0-inf) [29]: 2.06 µM·h
Cmax [30]: 22500 nM
Tmax [31]: 5 min
Therm_solubility ([2]; pH 6.8, 4 h, 4 h): 1500 µM
Vd [32]: 0.57 L/kg
bioavailability [33]: 16%
Stability [3]: 92%
Cmax [34]: 1570 nM
AUC(0-inf) [35]: 0.0689 µM·h
AUC(0-t) at 24 h [37]: 1400 µM·h
bioavailability [38]: 77%
Tmax [39]: 0.5 h
Cmax [40]: 105 nM
AUC(0-t) at 24 h [42]: 146 µM·h
half-life [43]: 0.77 h
clearance [44]: 78.7 mL/min/kg
half-life [45]: 2.02 h
AUC(0-inf) [46]: 3.23 µM·h
Tmax [47]: 1.2 h
Tmax [48]: 0.5 h
Tmax [49]: 0.5 h
Tmax [50]: 1.2 h
Vd [51]: 1.2 L/kg
Vd [52]: 0.15 L/kg
half-life [53]: 1.54 h
Cmax [54]: 9440 nM
AUC(0-t) at 24 h [55]: 100 µM·h
AUC(0-inf) [56]: 0.277 µM·h
remaining at 0.5 h [57]: 78%
Cmax [58]: 28100 nM
Tmax [59]: 6 h
clearance [60]: 8.7 mL/min/kg
clearance [61]: 45.3 mL/min/kg
clearance [62]: 47 mL/min/kg
Tmax [63]: 0.83 h
SMILES: Cn1nccc1[C@H]1CCCC[C@@H]1Oc1cc(F)c(S(=O)(=O)Nc2ccncn2)cc1Cl [DS-1971]
NOAEL at 6 months [11]: 1000 mg/kg
NOAEL [12]: 1000 mg/kg
NOAEL [13]: 1000 mg/kg
NOAEL at 9 months [15]: 1000 mg/kg
NOAEL at 6 months [18]: 1000 mg/kg
NOAEL at 24 h [27]: 1000 mg/kg
NOAEL at 9 months [28]: 1000 mg/kg
NOAEL [36]: 1000 mg/kg
NOAEL [41]: 1000 mg/kg
